Assay results reported in the METLIN SMRT retention time set (Domingo-Almenara et al. 2019).

Assay: gradient 5% acetonitrile 3 min, to 50% in 2 min, to 85% in 15 min, held 3 min, 100 µL/min
Conditions: column: Zorbax Extend-C18 2.1 x 50 mm; eluents: water / acetonitrile, 0.1% formic acid
Outline: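 Retention times come from adduct peaks that were picked computationally and then checked by hand. The standards, pure and pooled in mixtures of ~100 molecules, were run on a Zorbax Extend-C18 column (2.1 × 50 mm, 1.8 μm) at 100 μL/min with water and acetonitrile, each with 0.1% formic acid. Detection was by quadrupole time-of-flight mass spectrometry in positive and negative ionization mode, with a dead volume of 40 μL and a dwell volume of 900 μL.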

SMILES	RP-LC retention time [s]
Cc1cccc2nnc(N3CCN(C(=O)c4ccncc4)CC3)n12	551
Cc1ccccc1-c1nnc(CSc2nnc(NC(=O)c3cccc(Cl)c3)s2)o1	1040
Cc1nnc(NC(=O)CN2CC(c3nc(C4CC4)no3)C2)s1	537
CCNC(=O)c1c2c(nc3ccc(F)cc13)CCCC2	588
COc1ccc(-c2nnc(-c3ccc(Cl)c(S(=O)(=O)N4CCCCCC4)c3)o2)cc1	1210
O=C1COc2ccc(S(=O)(=O)N3CCC(C(=O)NCc4cccs4)CC3)cc2N1	702
O=C(Cn1c(=O)c2cccn2c2ccc(F)cc21)N1CCc2ccccc2C1	911
CC1CCN(C(=O)C2=NN(C)c3ccccc3S2(=O)=O)CC1	799
O=C(Cc1csc2nc(-c3ccccc3)cn12)Nc1ccc(C(F)(F)F)cc1	922
O=C(CSc1cnc2ccccc2n1)N1CCN(c2ccc(F)cc2)CC1	851
COc1cccc(C(O)CN2CCN(C3CCCCC3)CC2)c1 (stereo not given)	548
COc1nn(C)cc1C(=O)NCc1ccco1	599
Cc1oc(-c2ccccc2)nc1Cn1ccn2nc(-c3ccc4c(c3)OCO4)cc2c1=O	1060
O=C(COc1ccc(F)cc1)N1CCOc2ccc(N3CCOCC3)cc2C1	787
O=C1COc2ccc(S(=O)(=O)N3CCCC3C(=O)Nc3cccc(Cl)c3)cc2N1 (stereo not given)	835
COC(=O)c1cccc(COC(=O)C2=CN(Cc3ccccc3)S(=O)(=O)N=C2C)c1	1060
O=C(Nc1ccc(F)cc1F)c1ncccn1	661
CN1CCN(S(=O)(=O)c2cccc(-c3nc(-c4ccccc4)no3)c2)CC1	694
COc1cc2c(cc1CNC(=O)COc1ccc(Br)cc1)OCCCO2	957
Cc1nc(-c2cnccn2)nc2c1CCC(=O)N2Cc1ccccc1F	726
CC(C)Cn1c(=O)c(N2CCN(C(=O)c3nccc4ccccc34)CC2)nc2ccncc21	646
COCCNc1c(-c2ccc(F)cc2)nc2sc(C(=O)NCc3ccccn3)c(C)n12	661
COc1ccc(S(=O)(=O)N2CCCC(C(=O)NCC3CCCO3)C2)cc1Cl (stereo not given)	785

SMILES	RP-LC retention time [s]
COc1cccc(CN2CCc3nn(Cc4ccccc4)c(=O)n3CC2)n1	580
Cc1nc(-c2cn(C(C)C)c3ncccc23)sc1C(=O)NCc1ccco1	912
Cc1cc(C)c(S(=O)(=O)N2CCC(N3CCN(Cc4ccccc4)C(=O)C3=O)CC2)cc1C	917
CCOc1nc2ccccc2nc1N1CCCC(C(=O)Nc2cccc(F)c2)C1 (stereo not given)	1200
Cc1cc(N2C=C(C(=O)N3CCOCC3)S(=O)(=O)c3ccc(F)cc32)ccc1F	814
CNCCc1cnc(CCC(c2ccccc2)c2ccccc2)[nH]1	608
CCCN1C(=O)Cc2ccccc2C1C(=O)NCc1cccs1 (stereo not given)	758
COc1ccc(N2CC(c3noc(-c4ccc(C)c(C)c4)n3)CC2=O)cc1OC (stereo not given)	983
CCc1ccc(C(=O)Nc2cc3c(cc2S(=O)(=O)C(C)C)n(C)c(=O)n3C)cc1	747
CCc1nc(N)n(CC(=O)NCc2ccc(F)cc2)c(=O)c1C	634
Cn1c(=O)c2nc(S(=O)(=O)CCC(=O)Nc3ccc(Cl)cc3)n(C)c2n(C)c1=O	741
Cc1ccccc1Nc1c(-c2cc(Br)ccc2F)nc2c(C)cccn12	843
CCOC(=O)C1CCN(C(=O)C2CCCN(c3cnc4nc(C)c(C)nc4c3)C2)CC1 (stereo not given)	689
CN1C2CC(OC(=O)C(CO)c3ccccc3)CC1C1OC12 (stereo not given)	640
O=C(NC1CC1)[C@@H]1C[C@H](Oc2cccnc2)CN1C(=O)c1ccoc1	546
CC(=O)c1cccc(NC(=O)Cn2cc(-c3nnc(C)o3)c3ccccc32)c1	755
O=C(CCc1ccccc1)NCC(=O)Nc1nc2ccccc2[nH]1	640
Cc1ccc(CNC(=O)C2CCN(C(=O)c3ncn4c3COC(c3ccccc3)C4)CC2)cc1 (stereo not given)	782
COCCNC(=O)c1ccccc1-c1ocnc1C(=O)OC	611
CCCCC(=O)Nc1ccc2c(c1)nc(CN1CCN(S(C)(=O)=O)CC1)n2CC	635
CCn1cc(CN2CCC(N3C(=O)C4(CCCCC4)C3c3ccccc3)CC2)cn1 (stereo not given)	681
CC(C)c1ccc(S(=O)(=O)N2CCC(C(=O)NCc3csc(-c4cccs4)n3)CC2)cc1	1030
O=C(c1ccc2ccnc(N3CCN(c4ccc(F)cc4)CC3)c2c1)N1CCN(c2ncccn2)CC1	749

SMILES	RP-LC retention time [s]
COc1ccc(CN2C(=O)[C@H](OC)[C@@H]2C2=CCN(C(=O)C3(c4ccccc4)CC3)CC2)cc1	870
CC1=C(c2ccc(F)cc2)S(=O)(=O)N=C1N1CCCN(C(=O)Cc2ccsc2)CC1	812
CCS(=O)(=O)N1CCCc2cc(C(=O)Nc3cccc(Br)c3)ccc21	1040
CSc1ccc(-c2nc3ncccn3c2Nc2ccccc2C)cc1	839
Cc1nn(C2CCS(=O)(=O)C2)c(C)c1S(=O)(=O)NCc1ccco1 (stereo not given)	638
O=C(c1ccsc1)N1CCN(c2ncnc3c2CCC3)CC1	557
CCOCCCNC(=O)c1cc2n(n1)CCCN(Cc1ccccc1)C2=O	724
CCc1c(C(=O)O)nnn1-c1ccc(C)c(Cl)c1	809
O=C(CN1C(=O)c2cccc3cccc(c23)C1=O)NCC1CCCO1 (stereo not given)	651
O=C(O)c1cccc(-c2noc(-c3ccccc3F)n2)c1	964
CCN1CCCC1CNC(=O)c1nnc(-c2ccc(S(=O)(=O)N3CCCCC3)cc2)o1 (stereo not given)	645
O=C(NCCc1csc(-c2cccc(F)c2)n1)c1ccc([N+](=O)[O-])cc1Cl	917
Cc1noc(C)c1-c1ccc(S(=O)(=O)NC2CCCCCC2)cc1	1010
Cc1cc(C)cc(NC(=O)C2CCN(S(=O)(=O)c3cc(-c4noc(C)n4)cs3)CC2)c1	953
Cc1ccnn1-c1ccc(SCC(=O)Nc2ccc(F)cc2F)nn1	893
CCCNC(=O)C1CCCN(c2nc3ncn(CC(=O)Nc4c(C)cc(C)cc4C)c(=O)c3s2)C1 (stereo not given)	728
CC1CCN(c2cnn(CC(=O)Nc3ccc4c(c3)CCC4)c(=O)c2Cl)CC1	1030
COc1cccc(NC(=O)N2CCN(c3cc(C)nc(N4CCOCC4)n3)CC2)c1	628
CN(C)CCNC(=O)c1ncn2c1C(=O)N(C1CC1)C(C)(C(=O)NCc1ccc(F)cc1)C2 (stereo not given)	600
O=C(NC1CCCCC1)C1CCCN(c2ncc(-c3ccccc3)cn2)C1 (stereo not given)	1070
Cc1cccc(C(=O)N2CCCC2c2cc(C(C)C)on2)c1 (stereo not given)	948
O=C(c1ccn2c(-c3ccccc3Br)nnc2c1)N1CCN(c2ccccn2)CC1	555
COc1ccc(Cl)cc1NS(=O)(=O)c1cc2n(c1)CCN(CC(C)C)C2=O	868

SMILES	RP-LC retention time [s]
Cc1ccc(C(=O)N2CCC3(CC2)NC(=O)c2cc(C)ccc2N3C)cc1	805
O=C(NCCc1csc(C2CCN(C(=O)C3CCCO3)CC2)n1)C1CC1 (stereo not given)	603
Cc1cccc(NC(=O)C2C(=O)NC3(C)CC2c2ccccc2O3)c1 (stereo not given)	920
N#Cc1cccc(Cn2c(-c3nc(-c4ccccc4)no3)cccc2=O)c1	688
COc1ccc(-c2cn3cccnc3n2)cc1NC(=O)c1cccc(Cl)c1	740
COc1nccnc1N1CCC(NC(=O)COc2ccc(F)cc2)C1 (stereo not given)	726
Cc1ccc(Cn2c(=O)n(CCNC(=O)c3cccn3C)c3ncccc32)cc1	822
O=C1CC(c2ccccc2)Cc2nc(N3CCN(c4ccccn4)CC3)ncc21 (stereo not given)	624
CN(C)S(=O)(=O)c1ccc(-c2nnc(C(=O)NCc3ccc(F)cc3)o2)cc1	844
CC(C)c1nc2nccc(-c3ccc(F)cc3)n2n1	831
CC(=O)c1cccc(NC(=O)c2noc3c2CCCC3)c1	874
Cc1ccc(C(=O)N2CCC(C)CC2)cc1[N+](=O)[O-]	830
Brc1ccc(-c2nnc(SCCCCOc3ccccc3)o2)cc1	1280
COc1ccc(C(=S)N2CCN(c3cccc(Cl)c3)CC2)cc1	1210
O=C(Cc1csc(-n2cccc2)n1)NCCc1c[nH]c2ccccc12	840
Cc1noc(C)c1-c1ccc(S(=O)(=O)Nc2ccc(Cl)cc2)cc1	1000
COc1cccc(-c2noc(Cn3c(=O)n(-c4cccc(F)c4)c(=O)c4sccc43)n2)c1	957
COc1ccc(S(=O)(=O)N2CCC(c3noc(-c4cccc(C)c4)n3)CC2)cc1	1170
CCOC(=O)C1=C(CN2CCN(c3ncccn3)CC2)NC(=O)NC1c1ccc(Cl)cc1 (stereo not given)	669
Cc1nn(-c2nc(CC(=O)N3CCCCC3)cs2)c(C)c1Cl	1050
CCOc1ccccc1-c1noc(-c2nnn3c2COC(c2ccc(C)cc2C)C3)n1 (stereo not given)	1290
